{
  "source": "patent US5494925A",
  "about": "“2-heterocyclyloxymethyl and 2-heterocyclylthiomethyl-1,2,5-thiadiazolidin-3-one 1,1-dioxides and compositions and method of use thereof” (Sterling Winthrop Inc., priority 1994, dated 1996)",
  "data": [
    {"biological_target": "T1, human leukocyte elastase (Homo sapiens, UniProt P08246)", "T1 sequence (P08246 30-267)": "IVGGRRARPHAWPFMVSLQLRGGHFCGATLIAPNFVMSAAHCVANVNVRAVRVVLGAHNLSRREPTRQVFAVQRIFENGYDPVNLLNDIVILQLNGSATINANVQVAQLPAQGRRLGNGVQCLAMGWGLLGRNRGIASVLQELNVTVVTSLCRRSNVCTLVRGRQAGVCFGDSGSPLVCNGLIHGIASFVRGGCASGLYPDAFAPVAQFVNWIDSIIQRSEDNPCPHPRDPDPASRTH", "experiment": "human leukocyte elastase inhibition, progress curves with MeOSuc-Ala-Ala-Pro-Val-pNA", "assay_type": "biochemical", "conditions": "HLE; substrate MeOSuc-Ala-Ala-Pro-Val-pNA; pH 7.8, 25° C.; 410 nM absorbance; read-out: inhibition constant Ki", "method": "The test compound (inhibitor) is dissolved in DMSO in a vial to produce an inhibitor stock solution which has a concentration in the range of 200-1000 μM. The inhibitor stock solution is diluted (1:4, 1:16 and 1:64) into assay vials (vials 1, 2 and 3 respectively) containing 2.4 mL of buffer solution (50 mM N-[2-hydroxyethyl]piperazine-N'-[2-ethanesulfonic acid]/NaOH, 500 mM NaCl, pH 7.8 at 25° C.) and DMSO is added so that the total volume in each vial is 3.2 mL. 70 μL, 50 μL, 35 μL and 25 μL of inhibitor from assay vial 1 is placed into the first four wells of a 96-well microtiter plate and each well is made up to 90 μL total volume with the addition of a 25% DMSO/buffer solution. The inhibitor from assay vials 2 and 3 is processed in a similar manner and placed in wells 5-12 respectively to afford a total of 12 different inhibitor concentrations. Four wells (wells 13-16) containing 90 μL of the 25% DMSO/buffer solution but no inhibitor are also run simultaneously with the inhibited wells as a control. 150 μL of substrate solution (prepared by the addition of 500 μL of the human leukocyte elastase (HLE) substrate MeOSuc-Ala-Ala-Pro-Val-pNA (18.7 mM in DMSO) to 19.5 mL of buffer solution) is then added simultaneously into each of the 16 wells and the solution in each well was thoroughly mixed.\nThe 96-well microtiter plate is placed into a Microplate Reader #89815A spectrophotometer and 110 μL of the enzyme solution (prepared as follows: a mixture of 20 mL of buffer solution and 20 mg of bovine serum albumen is gently vortexed in a scintillation vial and 5 μL HLE stock solution (1 mg/mL dissolved in deionized water) is added) is added simultaneously to each of the 16 wells. Each of the solutions in the wells is thoroughly mixed and then the time-dependent absorbance data is collected at an absorbance of 410 nm until the assay is complete. It should be noted that although this assay method can be done manually, it is preferred to perform the assay robotically using a Hewlett Packard MicroAssay System Robot.\nA plot of the absorbance versus time data thus obtained affords progress curves the final slope of which is equal to the final steady-state velocities (VF). Using the program ENZFITTER (Elsevier software), the progress curves for the four control assays ([I]=0) are fit by linear regression to yield the enzyme reaction velocity values in the absences of inhibitor (Vo) which are averaged to produce a single fixed value. The inhibition constant Ki (nM) is then obtained from a plot of [formula] which affords a linear plot wherein: [formula] and [S] is the concentration of the substrate and Km is the Michaelis constant.\nTable V summarizes the results obtained from the testing of representative compounds of the invention for human leukocyte elastase inhibitory activity.", "units": {"Ki": "nM"}, "values": [
      {"smiles": "CC(C)C1NS(=O)(=O)N(CSc2nnnn2-c2ccccc2)C1=O", "note": "(racemic) [2 (f), 2-(1-phenyl-1H-tetrazol-5-yl-thiomethyl)-4-isopropyl-1,2,5-thizdizolidin-3-one 1,1-dioxide]", "Ki": 3000},
      {"smiles": "CCCC1NS(=O)(=O)N(CSc2nnnn2-c2ccccc2)C1=O", "note": "(centres unmarked) [1 (f), 2-(1-phenyl-1H-tetrazol-5-yl-thiomethyl)-4-propyl-1,2,5-thiadiazolidin-3-one 1,1-dioxide]", "Ki": 180},
      {"smiles": "CCCC1C(=O)N(CSc2nnnn2-c2ccccc2)S(=O)(=O)N1C", "note": "(centres unmarked) [3 (h), 2-(1-phenyl-1H-tetrazol-5-yl-thiomethyl)-4-propyl-5-methyl-1,2,5-thiadiazolidin-3-one 1,1-dioxide]", "Ki": 3.6},
      {"smiles": "CC(C)C1C(=O)N(CSc2nnnn2-c2ccccc2)S(=O)(=O)N1C", "note": "(centres unmarked) [4 (f), 2-(1-phenyl-1H-tetrazol-5-yl-thiomethyl)-4-isopropyl-5-methyl-1,2,5-thiadiazolidin-3-one 1,1-dioxide]", "Ki": 200},
      {"smiles": "CCCC1C(=O)N(CSc2nnnn2-c2ccccc2)S(=O)(=O)N1CC", "note": "(centres unmarked) [5 (i), 2-(1-phenyl-1H-tetrazol-5-yl-thiomethyl)-4-propyl-5-ethyl-1,2,5-thiadiazolidin-3-one 1,1-dioxide]", "Ki": 11},
      {"smiles": "CC(C)CCC1C(=O)N(COc2cc(C(F)(F)F)nn2-c2ccccc2)S(=O)(=O)N1C", "note": "(centres unmarked) [6 (j), 2-(1-phenyl-3-trifluoromethyl-pyrazol-5-yloxymethyl)-4-(3-methylbutyl)-5-methyl-1,2,5-thiadiazolidin-3-one 1,1-dioxide]", "Ki": 2.4},
      {"smiles": "O=C1C2CCCCN2S(=O)(=O)N1CSc1nnnn1-c1ccccc1", "note": "(centres unmarked) [18 (f), 2-(1-phenyl-1H-tetrazol-5-yl-thiomethyl)-1,2,5-thiadiazolo [2,3-a]3,3a,4,5,6,7-hexahydropyridine-3-one 1,1-dioxide]", "Ki": 85},
      {"smiles": "O=C1C2CCCN2S(=O)(=O)N1CSc1nnnn1-c1ccccc1", "note": "(centres unmarked) [19 (f), 2-(1-phenyl-1H-tetrazol-5-yl-thiomethyl)tetrahydropyrrolo[1,2-b]-1,2,5-thiadiazol-3 (2H)-one 1,1-dioxide]", "Ki": 540}
    ]}
  ]
}
